Laboratory results: the supplement of paper PMC10307832

Compound: CCOC1=CC=CC=C1N=NC2=C(NN(C2=O)C3=NC(=CS3)C4=CC=CC=C4)C [BAM7] + Cc1nc(Nc2ncc(C(=O)Nc3c(C)cccc3Cl)s2)cc(N2CCN(CCO)CC2)n1 [Dasatinib] (partner 0.075 µM)
Assay: relative viability (nuclei count vs DMSO), 5 days (fraction); higher = more cells survive
Conditions: first compound 50 µM
Outline: (§1)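 Relative viability was taken as the ratio of nuclei in treated wells to nuclei in vehicle wells. Lung cancer cell lines in 1536-well plates received compounds by pin tool one day after seeding, either one drug alone or a fixed anchor-drug dose plus five library-drug doses (not always all listed) in √10 steps. Nuclei were counted on 4× images after 5 days of treatment, and values are medians of duplicate plates.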

| Cell Line | relative viability |
| --- | --- |
| EKVX | 0.41 |
| LC-2-ad | 0.639 |
| NCI-H1944 | 0.279 |
| NCI-H1975 | 0.296 |
| RERF-LC-KJ | 0.358 |
| ABC-1 | 0.61 |
| NCI-H358 | 0.254 |
| NCI-H650 | 0.517 |
| PC-3 [JPC-3] | 0.946 |

Compound: CCOC1=CC=CC=C1N=NC2=C(NN(C2=O)C3=NC(=CS3)C4=CC=CC=C4)C [BAM7] + CCNC(=O)c1noc(-c2cc(C(C)C)c(O)cc2O)c1-c1ccc(CN2CCOCC2)cc1 [Luminespib] (partner 0.01 µM)
Assay: as above
Conditions: first compound 0.5 µM
Outline: as §1

| Cell Line | relative viability |
| --- | --- |
| NCI-H441 | 0.411 |
| NCI-H661 | 0.916 |
| NCI-H1734 | 0.215 |
| NCI-H460 | 0.0323 |
| NCI-H2347 | 0.592 |
| SK-LU-1 | 0.217 |
| NCI-H1395 | 0.713 |
| 201T | 0.984 |
| NCI-H1915 | 0.769 |
| HCC-827 | 0.582 |
| LXF-289 | 0.756 |
| NCI-H23 | 0.218 |
| NCI-H647 | 0.241 |
| CAL-12T | 0.327 |
| NCI-H1651 | 0.761 |
| EPLC-272H | 0.317 |
| NCI-H2228 | 0.136 |

| Cell Line | relative viability |
| --- | --- |
| NCI-H1355 | 0.697 |
| NCI-H3122 | 0.0898 |
| NCI-H1437 | 1.16 |
| NCI-H1755 | 0.431 |
| NCI-H2023 | 0.939 |
| HCC-15 | 0.338 |
| NCI-H1793 | 0.172 |
| PC-14 | 0.208 |
| EKVX | 0.909 |
| LC-2-ad | 1.06 |
| NCI-H1944 | 0.762 |
| NCI-H1975 | 0.206 |
| RERF-LC-KJ | 1.19 |
| ABC-1 | 0.291 |
| NCI-H358 | 0.382 |
| NCI-H650 | 0.73 |
| PC-3 [JPC-3] | 0.683 |

Same assay, conditions: first compound 5 µM

| Cell Line | relative viability |
| --- | --- |
| NCI-H441 | 0.326 |
| NCI-H661 | 0.938 |
| NCI-H1734 | 0.202 |
| NCI-H460 | 0.0283 |
| NCI-H2347 | 0.416 |
| SK-LU-1 | 0.18 |
| NCI-H1395 | 0.929 |
| 201T | 1.11 |
| NCI-H1915 | 0.886 |
| HCC-827 | 0.646 |
| LXF-289 | 0.686 |
| NCI-H23 | 0.249 |
| NCI-H647 | 0.18 |
| CAL-12T | 0.374 |
| NCI-H1651 | 0.836 |
| NCI-H2228 | 0.116 |
| NCI-H1355 | 0.754 |

| Cell Line | relative viability |
| --- | --- |
| NCI-H3122 | 0.13 |
| NCI-H1437 | 1.13 |
| NCI-H1755 | 0.495 |
| NCI-H2023 | 0.613 |
| HCC-15 | 0.439 |
| NCI-H1793 | 0.153 |
| PC-14 | 0.16 |
| EKVX | 0.925 |
| LC-2-ad | 1.26 |
| NCI-H1944 | 0.789 |
| NCI-H1975 | 0.219 |
| RERF-LC-KJ | 0.93 |
| ABC-1 | 0.496 |
| NCI-H358 | 0.283 |
| NCI-H650 | 1.03 |
| PC-3 [JPC-3] | 0.771 |

Same assay, conditions: first compound 15.81 µM

| Cell Line | relative viability |
| --- | --- |
| NCI-H441 | 0.381 |
| NCI-H661 | 0.96 |
| NCI-H1734 | 0.171 |
| NCI-H460 | 0.029 |
| SK-LU-1 | 0.2 |
| NCI-H1395 | 0.514 |
| 201T | 0.793 |
| NCI-H1915 | 0.833 |
| HCC-827 | 0.672 |
| LXF-289 | 0.628 |
| NCI-H23 | 0.225 |
| NCI-H647 | 0.191 |
| CAL-12T | 0.491 |
| NCI-H1651 | 0.853 |
| EPLC-272H | 0.317 |
| NCI-H2228 | 0.145 |
| NCI-H1355 | 0.637 |

| Cell Line | relative viability |
| --- | --- |
| NCI-H3122 | 0.0656 |
| NCI-H1437 | 1.12 |
| NCI-H1755 | 0.525 |
| NCI-H2023 | 0.586 |
| HCC-15 | 0.4 |
| NCI-H1793 | 0.201 |
| PC-14 | 0.152 |
| EKVX | 0.618 |
| LC-2-ad | 0.951 |
| NCI-H1944 | 0.617 |
| NCI-H1975 | 0.209 |
| RERF-LC-KJ | 0.726 |
| ABC-1 | 0.469 |
| NCI-H358 | 0.376 |
| NCI-H650 | 0.755 |
| PC-3 [JPC-3] | 0.612 |

Same assay, conditions: first compound 50 µM

| Cell Line | relative viability |
| --- | --- |
| NCI-H441 | 0.351 |
| NCI-H661 | 0.921 |
| NCI-H1734 | 0.211 |
| NCI-H460 | 0.0339 |
| NCI-H2347 | 0.516 |
| SK-LU-1 | 0.186 |
| NCI-H1395 | 0.673 |
| 201T | 1.01 |
| NCI-H1915 | 0.76 |
| HCC-827 | 0.651 |
| LXF-289 | 0.665 |
| NCI-H23 | 0.206 |
| NCI-H647 | 0.146 |
| CAL-12T | 0.508 |
| NCI-H1651 | 0.734 |
| EPLC-272H | 0.507 |
| NCI-H2228 | 0.153 |

| Cell Line | relative viability |
| --- | --- |
| NCI-H1355 | 0.707 |
| NCI-H3122 | 0.0782 |
| NCI-H1437 | 1.09 |
| NCI-H1755 | 0.524 |
| NCI-H2023 | 0.721 |
| HCC-15 | 0.187 |
| NCI-H1793 | 0.17 |
| PC-14 | 0.143 |
| EKVX | 0.803 |
| LC-2-ad | 1.03 |
| NCI-H1944 | 0.855 |
| NCI-H1975 | 0.189 |
| RERF-LC-KJ | 0.759 |
| ABC-1 | 0.773 |
| NCI-H358 | 0.49 |
| NCI-H650 | 0.917 |
| PC-3 [JPC-3] | 0.636 |
